In brackets after ≈: the same amount, converted by molar mass. One block for each compound: values may come before it.
Columns and labels:
Assay in all cases: ≥ marks a high value that may be exact or a test limit, other limits are often not marked, values filed in µg/mL are converted to µM
[1] = tested on: Enterococcus faecalis ATCC 29212
[2] = tested on: Escherichia coli ATCC 25922
[3] = tested on: Enterococcus casseliflavus ATCC 700327
[4] = tested on: Staphylococcus epidermidis ATCC 12228
[5] = tested on: Staphylococcus aureus ATCC 25923
[6] = tested on: Klebsiella pneumoniae ATCC 13883
Klebsiella pneumoniae = tested on: Klebsiella pneumoniae
[7] = tested on: Pseudomonas aeruginosa ATCC 27853
Staphylococcus aureus = tested on: Staphylococcus aureus
[8] = tested on: Salmonella enterica subsp. enterica serovar Typhimurium ATCC 14028
[9] = tested on: Salmonella enterica subsp. enterica serovar Typhimurium C77-31
[10] = tested on: Staphylococcus aureus ATCC 29213
[11] = tested on: Salmonella enterica subsp. enterica serovar Pullorum C79-13
[12] = tested on: Salmonella enterica subsp. enterica serovar Choleraesuis CVCC 503
Streptococcus agalactiae = tested on: Streptococcus agalactiae
[13] = tested on: Staphylococcus aureus ATCC 43300
Escherichia coli UB1005 = tested on: Escherichia coli UB1005
[14] = tested on: Salmonella typhimurium C610
[15] = tested on: Staphylococcus epidermidis
Bacillus subtilis = tested on: Bacillus subtilis
[16] = tested on: Staphylococcus aureus K147
[17] = tested on: Pseudomonas aeruginosa H103
Escherichia coli O111:B4 = tested on: Escherichia coli O111:B4
[18] = tested on: Staphylococcus aureus SAP 0017
Enterococcus faecalis = tested on: Enterococcus faecalis
[19] = tested on: Staphylococcus epidermidis NBRC 12993
[20] = tested on: Candida viswanathii NBRC 10321
[21] = tested on: Aspergillus oryzae NBRC 100959
[22] = tested on: Escherichia coli NBRC 3972
[23] = tested on: Micrococcus luteus NBRC 3333
[24] = tested on: Salmonella enterica subsp. enterica serovar Typhimurium ATCC 14028s
[25] = tested on: Streptococcus pneumoniae ATCC 49619
[26] = tested on: Streptococcus pyogenes ATCC 19615
[27] = tested on: Pseudomonas aeruginosa K799
Streptococcus mitis = tested on: Streptococcus mitis
Listeria monocytogenes = tested on: Listeria monocytogenes
[28] = tested on: Staphylococcus epidermidis C621
Corynebacterium xerosis = tested on: Corynebacterium xerosis

Compound: CC[C@H](C)[C@H](NC(=O)[C@@H](N)Cc1ccccc1)C(=O)NCC(=O)N[C@H](C(=O)N[C@@H](CC(C)C)C(=O)N[C@H](C(=O)N1CCC[C@H]1C(=O)N[C@@H](CC(C)C)C(=O)N[C@@H](C)C(=O)N[C@@H](CC(C)C)C(=O)NCC(=O)N[C@@H](C)C(=O)N[C@@H](CC(C)C)C(=O)N[C@H](C(=O)N[C@@H](CCCCN)C(=O)N[C@@H](CC(C)C)C(=O)N[C@@H](Cc1ccccc1)C(=O)N[C@@H](CCCCN)C(N)=O)[C@@H](C)O)[C@@H](C)CC)[C@@H](C)O [FIGTLIPLALGALTKLFK]
- MIC [1]: 8 µM (≈ 15.3 µg/mL)
- MIC [2]: 16 µM (≈ 30.6 µg/mL)
- MIC [3]: 16 µM (≈ 30.6 µg/mL)
- MIC [4]: 2 µM (≈ 3.83 µg/mL)
- MIC [5]: 4 µM (≈ 7.66 µg/mL)
- MIC [6]: 4 µM (≈ 7.66 µg/mL)

Compound: CC[C@H](C)[C@H](NC(=O)[C@H](CC(C)C)NC(=O)[C@H](C)NC(=O)[C@@H]1CCCN1C(=O)[C@H](CC(C)C)NC(=O)[C@H](C)NC(=O)[C@@H](NC(=O)[C@@H](NC(=O)[C@@H](NC(=O)[C@@H](NC(=O)[C@H](CCCCN)NC(=O)[C@H](CCCCN)NC(=O)[C@H](CC(C)C)NC(=O)[C@@H](NC(=O)[C@H](CCCCN)NC(=O)[C@@H](NC(=O)[C@H](CC(C)C)NC(=O)[C@H](CC(N)=O)NC(=O)[C@H](CCCCN)NC(=O)[C@@H](NC(=O)[C@H](Cc1ccccc1)NC(=O)[C@H](CO)NC(=O)[C@H](CCCCN)NC(=O)[C@H](Cc1c[nH]c2ccccc12)NC(=O)[C@@H](N)CCCCN)[C@@H](C)CC)[C@@H](C)O)C(C)C)C(C)C)C(C)C)[C@@H](C)O)[C@@H](C)O)C(=O)N[C@@H](CO)C(=O)O [KWKSFIKNLTKVLKKVVTTALPALIS]
- MIC [14]: 2.73 µM (≈ 8 µg/mL)
- MIC [15]: 5.47 µM (≈ 16 µg/mL)
- MIC (Bacillus subtilis): 2.73 µM (≈ 8 µg/mL)
- MIC [16]: 5.47 µM (≈ 16 µg/mL)
- MIC [17]: 5.47 µM (≈ 16 µg/mL)
- MIC (Escherichia coli O111:B4): 2.73 µM (≈ 8 µg/mL)
- MIC [18]: 2.73 µM (≈ 8 µg/mL)
- MIC (Enterococcus faecalis): 21.9 µM (≈ 64 µg/mL)

Compound: CC[C@H](C)[C@H](NC(=O)[C@H](CCCN=C(N)N)NC(=O)[C@H](CS)NC(=O)[C@H](CC(C)C)NC(=O)[C@@H](N)CCCN=C(N)N)C(=O)N[C@H](C(=O)N1CCC[C@H]1C(=O)N[C@H](C(=O)N[C@H](C(=O)N[C@@H](CCCN=C(N)N)C(=O)N[C@H](C(=O)N[C@@H](CS)C(=O)N[C@@H](CCCN=C(N)N)C(=O)O)C(C)C)[C@@H](C)CC)C(C)C)C(C)C [RLCRIVPVIRVCR]
- MIC [1]: 20.2 µM (≈ 32 µg/mL)
- MIC [24]: ≥ 40.4 µM
- MIC [25]: ≥ 40.4 µM
- MIC [26]: 20.2 µM (≈ 32 µg/mL)
- MIC [5]: > 40.4 µM
- MIC [27]: 20.2 µM (≈ 32 µg/mL)
- MIC (Streptococcus mitis): 1.26 µM (≈ 2 µg/mL)
- MIC (Listeria monocytogenes): 2.53 µM (≈ 4 µg/mL)
- MIC [28]: 10.1 µM (≈ 16 µg/mL)
- MIC (Corynebacterium xerosis): 1.26 µM (≈ 2 µg/mL)
- MIC (Escherichia coli UB1005): 10.1 µM (≈ 16 µg/mL)

Compound: CC[C@H](C)[C@H](NC(=O)[C@H](CCCN=C(N)N)NC(=O)[C@H](CO)NC(=O)[C@H](CC(C)C)NC(=O)[C@@H](N)CCCN=C(N)N)C(=O)N[C@H](C(=O)N[C@H](C(=O)N[C@H](C(=O)N[C@@H](CCCN=C(N)N)C(=O)N[C@H](C(=O)N[C@@H](CS)C(=O)N[C@@H](CCCN=C(N)N)C(N)=O)C(C)C)[C@@H](C)CC)C(C)C)C(C)C [RLSRIVVIRVCR]
- MIC [1]: 10.9 µM (≈ 16 µg/mL)
- MIC [24]: ≥ 43.5 µM
- MIC [25]: 5.44 µM (≈ 7.99 µg/mL)
- MIC [26]: 5.44 µM (≈ 7.99 µg/mL)
- MIC [5]: 10.9 µM (≈ 16 µg/mL)
- MIC [27]: 10.9 µM (≈ 16 µg/mL)
- MIC (Streptococcus mitis): 0.34 µM (≈ 0.5 µg/mL)
- MIC (Listeria monocytogenes): 0.34 µM (≈ 0.5 µg/mL)
- MIC [28]: 1.36 µM (≈ 2 µg/mL)
- MIC (Corynebacterium xerosis): 0.34 µM (≈ 0.5 µg/mL)
- MIC (Escherichia coli UB1005): 2.72 µM (≈ 4 µg/mL)

Now from value to compound, other results behind:

- MIC (Klebsiella pneumoniae): 16 µM (≈ 48.1 µg/mL)
- MIC [1]: 8 µM (≈ 24.1 µg/mL)
- MIC [2]: 8 µM (≈ 24.1 µg/mL)
- MIC [3]: 4 µM (≈ 12 µg/mL)
- MIC [4]: 4 µM (≈ 12 µg/mL)
- MIC [7]: 32 µM (≈ 96.2 µg/mL)
- MIC [5]: 8 µM (≈ 24.1 µg/mL)
- MIC [6]: 8 µM (≈ 24.1 µg/mL)
Compound: CC[C@H](C)[C@H](NC(=O)[C@H](C)NC(=O)CNC(=O)[C@H](CC(C)C)NC(=O)[C@@H](N)Cc1ccccc1)C(=O)N[C@@H](CC(C)C)C(=O)N[C@@H](CCCCN)C(=O)N[C@H](C(=O)NCC(=O)N[C@@H](Cc1cnc[nH]1)C(=O)N[C@@H](C)C(=O)N[C@@H](CC(C)C)C(=O)N[C@@H](C)C(=O)N[C@@H](CCCCN)C(=O)N[C@H](C(=O)N[C@H](C(=O)N[C@@H](CC(C)C)C(=O)N1CCC[C@H]1C(=O)N[C@@H](CCSC)C(=O)N[C@H](C(=O)N[C@H](C(=O)N[C@@H](CC(N)=O)C(=O)N[C@@H](C)C(=O)N[C@@H](Cc1ccccc1)C(=O)N[C@@H](CCCCN)C(=O)N1CCC[C@H]1C(=O)N[C@@H](CCCCN)C(=O)N[C@@H](CCC(N)=O)C(=O)O)[C@@H](C)O)C(C)C)C(C)C)[C@@H](C)O)[C@@H](C)CC [FLGAILKIGHALAKTVLPMVTNAFKPKQ]

- MIC [1]: > 64 µM
- MIC (Staphylococcus aureus): > 64 µM
- MIC [4]: > 64 µM
- MIC [8]: 2 µM (≈ 5.72 µg/mL)
- MIC [9]: 4 µM (≈ 11.4 µg/mL)
- MIC [10]: > 64 µM
- MIC [11]: 16 µM (≈ 45.8 µg/mL)
- MIC (Streptococcus agalactiae): ≥ 64 µM
- MIC [13]: > 64 µM
- MIC (Escherichia coli UB1005): 2 µM (≈ 5.72 µg/mL)
Compound: CC[C@H](C)[C@H](N)C(=O)N[C@@H](CS)C(=O)N[C@@H](CCCN=C(N)N)C(=O)N[C@@H](CCCCN)C(=O)N1CCC[C@H]1C(=O)N[C@H](C(=O)N[C@H](C(=O)N[C@@H](CS)C(=O)N[C@@H](CCCN=C(N)N)C(=O)N[C@@H](CCCCN)C(=O)N1CCC[C@H]1C(=O)N[C@H](C(=O)N[C@H](C(=O)N[C@@H](CS)C(=O)N[C@@H](CCCN=C(N)N)C(=O)N[C@@H](CCCCN)C(=O)N1CCC[C@H]1C(=O)N[C@H](C(=O)N[C@H](C(=O)N[C@@H](CS)C(=O)N[C@@H](CCCN=C(N)N)C(=O)N[C@@H](CCCCN)C(=O)N1CCC[C@H]1C(=O)N[C@H](C(N)=O)[C@@H](C)CC)[C@@H](C)CC)[C@@H](C)CC)[C@@H](C)CC)[C@@H](C)CC)[C@@H](C)CC)[C@@H](C)CC [ICRKPIICRKPIICRKPIICRKPI]
- MIC [12]: 8 µM (≈ 22.9 µg/mL)

- MIC [19]: 13.6 µM (≈ 25 µg/mL)
- MIC [20]: 27.3 µM (≈ 50 µg/mL)
- MIC [21]: 13.6 µM (≈ 25 µg/mL)
- MIC [22]: ≥ 218 µM
- MIC [23]: 13.6 µM (≈ 25 µg/mL)
Compound: CC[C@H](C)[C@H](NC(=O)[C@H](CCCCN)NC(=O)[C@@H](N)CCCN=C(N)N)C(=O)N[C@@H](CCCCN)C(=O)N[C@@H](CCCN=C(N)N)C(=O)N[C@@H](Cc1ccc(O)cc1)C(=O)N[C@@H](CC(C)C)C(=O)N[C@@H](CCCN=C(N)N)C(=O)N[C@@H](CCCN=C(N)N)C(=O)N[C@@H](CCSC)C(=O)N[C@H](C(=O)N[C@H](C(=O)N[C@@H](Cc1c[nH]c2ccccc12)C(=O)O)[C@@H](C)CC)[C@@H](C)CC [RKIKRYLRRMIIW]

Source: DBAASP
